In patent publication US20240174671A1, “New 2,3-Dihydro-1H-pyrrolo[3,2-b]pyridine Derivatives as Sigma Ligands” (ACONDICIONAMIENTO TARRASENSE, priority 2021, published 2024):
pKi: −log10 of the molar value. Like-named read-outs stand apart in the source and are kept apart here.

What was measured:
human σ2/TMEM97 receptor = target: T1, human σ2/TMEM97 receptor (Homo sapiens, UniProt Q5BJF2); assay: Binding assay to human σ2/TMEM97 receptor ([3H]-DTG); conditions: transfected HEK-293 membranes, 10 nM [3H]-DTG, 25° C., 120 minutes; read-out: Binding σ-[…] (binding to σ2-receptor expressed as Ki)
T1 construct: expressed in transfected cells; host or cells: HEK-293
T1 sequence (Q5BJF2 whole entry): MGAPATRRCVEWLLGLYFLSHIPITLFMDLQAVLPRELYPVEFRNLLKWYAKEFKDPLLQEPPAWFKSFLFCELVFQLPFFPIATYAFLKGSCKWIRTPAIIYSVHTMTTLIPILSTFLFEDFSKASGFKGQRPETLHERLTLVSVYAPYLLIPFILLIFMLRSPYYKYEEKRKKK
In short: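 Membranes from transfected HEK-293 cells incubated with 10 nM [3H]-DTG in 50 mM Tris-HCl pH 8.0, 120 min at 25 °C; non-specific binding defined with 10 μM haloperidol. Bound radioactivity counted after filtration; compounds tested as % inhibition at 1 or 10 μM or at five concentrations for Ki.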

human σ1 receptor = target: T2, human σ1 receptor (Homo sapiens, UniProt Q99720); assay: Human σ1 receptor radioligand assay ([3H](+)-pentazocine); type: binding
T2 construct: expressed in transfected cells; host or cells: HEK-293
T2 sequence (Q99720 whole entry): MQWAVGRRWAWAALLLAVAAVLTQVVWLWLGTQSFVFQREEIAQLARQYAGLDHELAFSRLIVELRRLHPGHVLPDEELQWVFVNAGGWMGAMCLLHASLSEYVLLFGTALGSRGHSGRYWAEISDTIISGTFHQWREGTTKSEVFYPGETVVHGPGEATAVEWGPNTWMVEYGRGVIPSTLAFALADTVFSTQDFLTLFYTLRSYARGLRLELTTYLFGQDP
In short: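 Binding used [3H](+)-pentazocine, 120 min at 37° C, with non-specific binding defined by 10 μM haloperidol. Bound radioligand was collected by filtration, washed with ice-cold 10 mM Tris-HCl pH 7.4 and counted by scintillation.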

[1] = transfected HEK-293 membranes, 5 nM [3H](+)-pentazocine, 37° C., 120 minutes, read-out: Binding σ-[…] (binding to σ1-receptor expressed as Ki)

| SMILES | pKi (human σ2/TMEM97 receptor) | pKi (human σ1 receptor; [1]) | pKi (human σ1 receptor) |
| --- | --- | --- | --- |
| COc1ccc(CN2CCC3(CC2)CCN(C(=O)N2CC(C)(C)c4nc(C)ccc42)C3)cc1 [Example 103, (8-(4-methoxybenzyl)-2,8-diazaspiro[4.5]decan-2-yl)(3,3,5-trimethyl-2,3-dihydro-1H-pyrrolo[3,2-b]pyridin-1-yl)methanone] | > 7.00 | 6.30 to 7.00 |  |
| Cc1ccc2c(n1)C(C)(C)CN2C(=O)NC1CCN(CCc2ccccc2)CC1 [Example 27, 3,3,5-trimethyl-N-(1-phenethylpiperidin-4-yl)-2,3-dihydro-1H-pyrrolo[3,2-b]pyridine-1-carboxamide] | > 7.00 |  | 6.30 to 7.00 |
| Cc1ccc2c(n1)C(C)(C)CN2C(=O)N1CCC2(CCN(CCC3CCOCC3)CC2)C1 [Example 108, (8-(2-(tetrahydro-2H-pyran-4-yl)ethyl)-2,8-diazaspiro[4.5]decan-2-yl)(3,3,5-trimethyl-2,3-dihydro-1H-pyrrolo[3,2-t]pyridin-1-yl)methanone] | > 7.00 | < 6.00 |  |
| CC1(C)CN(C(=O)N2CCC3(CCN(Cc4cc(C#N)c(F)cc4F)CC3)C2)c2cccnc21 [Example 158, 5-((2-(3,3-dimethyl-2,3-dihydro-1H-pyrrolo[3,2-b]pyridine-1-carbonyl)-2,8-diazaspiro[4.5]decan-8-yl)methyl)-2,4-difluorobenzonitrile] | > 7.00 | > 7.00 |  |
| CN[C@H](CNC(=O)N1CC(C)(C)c2nc(C)ccc21)c1ccccc1 [Example 111, (S)-3,3,5-trimethyl-N-(2-(methylamino)-2-phenylethyl)-2,3-dihydro-1H-pyrrolo[3,2-b]pyridine-1-carboxamide] | < 6.00 | 6.30 to 7.00 |  |
| CN(C)C(CNC(=O)N1CC(C)(C)c2nc(C(F)(F)F)ccc21)c1ccccc1 (stereo not drawn) [Example 3, N-(2-(dimethylamino)-2-phenylethyl)-3,3-dimethyl-5-(trifluoromethyl)-2,3-dihydro-1H-pyrrolo[3,2-b]pyridine-1-carboxamide] | < 6.00 | 6.30 to 7.00 |  |
| CC1(C)CN(C(=O)N2CCC3(CCN(Cc4ccccc4F)CC3)C2)c2cccnc21 [Example 141, (3,3-dimethyl-2,3-dihydro-1H-pyrrolo[3,2-b]pyridin-1-yl)(8-(2-fluorobenzyl)-2,8-diazaspiro[4.5]decan-2-yl)methanone] | > 7.00 | > 7.00 |  |
| CC1(C)CN(C(=O)N2CCC3(CCN(Cc4cc(F)ccc4F)CC3)CC2)c2cccnc21 [Example 164, (9-(2,5-difluorobenzyl)-3,9-diazaspiro[5.5]undecan-3-yl)(3,3-dimethyl-2,3-dihydro-1H-pyrrolo[3,2-b]pyridin-1-yl)methanone] | > 7.00 | > 7.00 |  |
| CC1(C)CN(C(=O)N2CCC3(CCN(Cc4ccc(C#N)cc4F)CC3)CC2)c2cccnc21 [Example 165, 4-((9-(3,3-dimethyl-2,3-dihydro-1H-pyrrolo[3,2-b]pyridine-1-carbonyl)-3,9-diazaspiro[5.5]undecan-3-yl)methyl)-3-fluorobenzonitrile] | > 7.00 | > 7.00 |  |
| CC1(C)CN(C(=O)N2CCC3(CCN(CC4CCOCC4)CC3)C2)c2cccnc21 [Example 144, (3,3-dimethyl-2,3-dihydro-1H-pyrrolo[3,2-b]pyridin-1-yl)(8-((tetrahydro-2H-pyran-4-yl)methyl)-2,8-diazaspiro[4.5]decan-2-yl)methanone] | > 7.00 | 6.30 to 7.00 |  |
| CC1(C)CN(C(=O)N2CCC3(CCN(Cc4ncccc4F)CC3)C2)c2cccnc21 [Example 153] | 6.30 to 7.00 | < 6.00 |  |
| Cc1ccc2c(n1)C(C)(C)CN2C(=O)N1CCC2(CCN(Cc3cccc(S(C)(=O)=O)c3)CC2)C1 [Example 102, (8-(3-(methylsulfonyl)benzyl)-2,8-diazaspiro[4.5]decan-2-yl)(3,3,5-trimethyl-2,3-dihydro-1H-pyrrolo[3,2-b]pyridin-1-yl)methanone] | > 7.00 | < 6.00 |  |
| CC1(C)CN(C(=O)NC2CCN(Cc3cccc(F)c3)CC2)c2cccnc21 [Example 47, N-(1-(3-fluorobenzyl)piperidin-4-yl)-3,3-dimethyl-2,3-dihydro-1H-pyrrolo[3,2-b]pyridine-1-carboxamide] | < 6.00 | > 7.00 |  |
| CC1(C)CN(C(=O)NCC2CCN(CCc3ccccc3)CC2)c2cccnc21 [Example 70, 3,3-dimethyl-N-((1-phenethylpiperidin-4-yl)methyl)-2,3-dihydro-1H-pyrrolo[3,2-b]pyridine-1-carboxamide] | 6.30 to 7.00 | < 6.00 |  |
| Cc1ccc2c(n1)C(C)(C)CN2C(=O)N1CCC2(CCN(Cc3ccccc3F)CC2)CC1 [Example 160, (9-(2-fluorobenzyl)-3,9-diazaspiro[5.5]undecan-3-yl)(3,3,5-trimethyl-2,3-dihydro-1H-pyrrolo[3,2-b]pyridin-1-yl)methanone] | > 7.00 | > 7.00 |  |
| CC1(C)CN(C(=O)N2CCC3(CCN(Cc4ccc(F)c(C#N)c4)CC3)C2)c2cccnc21 [Example 143, 5-((2-(3,3-dimethyl-2,3-dihydro-1H-pyrrolo[3,2-b]pyridine-1-carbonyl)-2,8-diazaspiro[4.5]decan-8-yl)methyl)-2-fluorobenzonitrile] | > 7.00 | 6.30 to 7.00 |  |

More lines, main results first:

| pKi (human σ2/TMEM97 receptor) | pKi (human σ1 receptor; [1]) | SMILES | pKi (human σ1 receptor) |
| --- | --- | --- | --- |
| > 7.00 | > 7.00 | Cc1ccc2c(n1)C(C)(C)CN2C(=O)[C@H]1CC[C@@H](N(C)Cc2ccccc2)CC1 [Example 126, ((1s,4s)-4-(benzyl(methyl)amino)cyclohexyl)(3,3,5-trimethyl-2,3-dihydro-1H-pyrrolo[3,2-b]pyridin-1-yl)methanone] |  |
| > 7.00 | > 7.00 | CN(Cc1ccccc1)C1CCN(C(=O)N2CC(C)(C)c3nc(C#N)ccc32)CC1 [Example 40, 1-(4-(benzyl(methyl)amino)piperidine-1-carbonyl)-3,3-dimethyl-2,3-dihydro-1H-pyrrolo[3,2-b]pyridine-5-carbonitrile] |  |
| 6.30 to 7.00 | 6.30 to 7.00 | Cc1ccc2c(n1)C(C)(C)CN2C(=O)N1CCC(N(C)CC(C)C)CC1 [Example 119, (4-(isobutyl(methyl)amino)piperidin-1-yl)(3,3,5-trimethyl-2,3-dihydro-1H-pyrrolo[3,2-b]pyridin-1-yl)methanone] |  |
| > 7.00 | 6.30 to 7.00 | Cc1ccc2c(n1)C(C)(C)CN2C(=O)N1CCC(N(C)Cc2ccccc2)CC1 [Example 11, (4-(benzyl(methyl)amino)piperidin-1-yl)(3,3,5-trimethyl-2,3-dihydro-1H-pyrrolo[3,2-b]pyridin-1-yl)methanone] |  |
| > 7.00 | > 7.00 | Cc1ccc2c(n1)C(C)(C)CN2C(=O)[C@H]1CC[C@H](N(C)Cc2ccc(C#N)c(F)c2)CC1 [Example 180, 2-fluoro-4-((methyl((1r,4r)-4-(3,3,5-trimethyl-2,3-dihydro-1H-pyrrolo[3,2-b]pyridine-1-carbonyl)cyclohexyl)amino)methyl)benzonitrile] |  |
| 6.30 to 7.00 | 6.30 to 7.00 | Cc1ccc2c(n1)C(C)(C)CN2C(=O)N1CCC2(CCN(Cc3ccc(F)c(C#N)c3)CC2)CC1 [Example 162, 2-fluoro-5-((9-(3,3,5-trimethyl-2,3-dihydro-1H-pyrrolo[3,2-b]pyridine-1-carbonyl)-3,9-diazaspiro[5.5]undecan-3-yl)methyl)benzonitrile] |  |
| > 7.00 | > 7.00 | Cc1ccc2c(n1)C(C)(C)CN2C(=O)N1CCC(N(C)CCC(C)C)CC1 [Example 67, (4-(isopentyl(methyl)amino)piperidin-1-yl)(3,3,5-trimethyl-2,3-dihydro-1H-pyrrolo[3,2-b]pyridin-1-yl)methanone] |  |
| < 6.00 | > 7.00 | Cc1ccc2c(n1)C(C)(C)CN2C(=O)C1CN(Cc2ccccc2)C1 [Example 131, (1-benzylazetidin-3-yl)(3,3,5-trimethyl-2,3-dihydro-1H-pyrrolo[3,2-b]pyridin-1-yl)methanone] |  |
| > 7.00 | 6.00 to 6.30 | COc1cccc(CN(C)C2CCN(C(=O)N3CC(C)(C)c4nc(C)ccc43)CC2)c1 [Example 59] |  |
| > 7.00 | > 7.00 | CN(Cc1ccccc1)[C@H]1CC[C@@H](NC(=O)N2CC(C)(C)c3ncccc32)CC1 [Example 72, N-((1s,4s)-4-(benzyl(methyl)amino)cyclohexyl)-3,3-dimethyl-2,3-dihydro-1H-pyrrolo[3,2-b]pyridine-1-carboxamide] |  |
| > 7.00 | 6.00 to 6.30 | CN(Cc1ccc(F)cc1)C1CCN(C(=O)N2CC(C)(C)c3ncccc32)CC1 [Example 86, (3,3-dimethyl-2,3-dihydro-1H-pyrrolo[3,2-b]pyridin-1-yl)(4-((4-fluorobenzyl)(methyl)amino)piperidin-1-yl)methanone] |  |
| 6.30 to 7.00 | > 7.00 | Cc1ccc2c(n1)C(C)(C)CN2C(=O)[C@H]1C[C@H](N(C)Cc2ccccc2)C1 [Example 137, ((1r,3r)-3-(Benzyl(methyl)amino)cyclobutyl)(3,3,5-trimethyl-2,3-dihydro-1H-pyrrolo[3,2-b]pyridin-1-yl)methanone] |  |
| < 6.00 | > 7.00 | Cc1ccc2c(n1)C(C)(C)CN2C(=O)NC1CCN(Cc2ccccc2)CC1 [Example 1, N-(1-benzylpiperidin-4-yl)-3,3,5-trimethyl-2,3-dihydro-1H-pyrrolo[3,2-b]pyridine-1-carboxamide] |  |
| < 6.00 | > 7.00 | Cc1ccc2c(n1)C(C)(C)CN2C(=O)[C@@H]1CN(Cc2ccccc2)C[C@H]1C [Example 124, ((3S,4S)-1-benzyl-4-methylpyrrolidin-3-yl)(3,3,5-trimethyl-2,3-dihydro-1H-pyrrolo[3,2-b]pyridin-1-yl)methanone] |  |
